Results on one compound are retold here after US6451330B1, “High skin friction cosmetic creams with retinoids” (Unilever Home & Personal Care, USA, division of Conopco, …, priority 2000, dated 2002).

A short description of this series: Retinoid solubility in oil. Type of series: physicochemical. On the procedure: Retinoid solubility in oil is determined by the following procedure. A known weight of pure retinoid in excess of the expected solubility limit in the oil is added in an oil and methanol is added to the mixture to dissolve all retinoid crystals. Nitrogen sparging is used to ensure all methanol has evaporated from the oil. Retinoid is allowed to recrystallize overnight. The sample is filtered through a 0.45 micron filter. Known dilutions of the filtrate in isopropanol are measured by UV spectroscopy at an appropriate wavelength (325 nm for retinol) and the concentration of retinoid determined against calibration standards of retinoid in isopropanol.

Regarding `CC1=C(/C=C/C(C)=C/C=C/C(C)=C/CO)C(C)(C)CCC1` [retinol], the “SOLUBILITY, WT %” value is, setting by setting: (retinol crystals in C12-15 Alkyl benzoate) 85 WT %; (retinol crystals in Cetiol OE) 45 WT %; (retinol crystals in Cyclomethicone) 2.7 WT %; (retinol crystals in Dimethicone) 0.49 WT %; (retinol crystals in Isostearyl palmitate) 44 WT %; (retinol crystals in Mineral oil) 34.2 WT %. The “SOLUBILITY, WT %” value (retinol crystals in Triolein/Squalene (6:1)) was 56.4 WT %.
